Experimental data from PubChem BioAssay AID651795 (Broad Institute, 2012).
Where “and” joins values, the source holds several entries; their conditions need not be identical. Equal entries are not always repeated. Records with an inconclusive call do not appear. Calls of active or inactive are those of the source.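 The calls were made as follows: active = compounds whose fitted curve reaches 40% MLANA inhibition below twice the top dose tried; inconclusive = flat curve with 30 to 70% opposite effect, or poor fit; inactive = the rest.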

System: SK-MEL-5 MLANA mRNA qPCR, delta delta Ct, overnight
Assay: inhibitors of MLANA mRNA expression, dose response, cell-based, RT-qPCR, SK-MEL-5, dry powder (AID 651795)
Settings: not given

| SMILES | AC40 |
| --- | --- |
| O=C1C=C(Nc2ccc([N+](=O)[O-])c(C(F)(F)F)c2)C(=O)c2ccccc21 | 119 nM |
| O=C1C=C(NS(=O)(=O)c2cccs2)C(=O)c2ccccc21 | 1980 nM |
| O=C1C(Nc2ccccc2)=C(c2ccccc2)C(=O)c2ccccc21 | 7780 nM |
| O=C1C=C(NS(=O)(=O)c2ccc(Br)cc2)C(=O)c2ccccc21 | 2440 nM |
| COC1=C(NS(=O)(=O)c2cccs2)C(=O)c2ccccc2C1=O | 10500 nM |
| CC(C)N1CCN(C2=C(Nc3ccc(F)cc3F)C(=O)c3ccccc3C2=O)CC1 | 3470 nM |
| O=C1C=C(NS(=O)(=O)c2ccccc2)C(=O)c2ccccc21 | 1360 nM |
| O=C1C(Nc2ccc(Cl)cc2)=C(N2CCCC2)C(=O)c2ccccc21 | 8640 nM |
| CCN1CCN(C2=C(NC(=O)c3ccccc3)C(=O)c3ccccc3C2=O)CC1 | 1150 nM |
| O=C1C=C(Nc2ccccc2)C(=O)c2ccccc21 | 337 nM and 389 nM |
| NC1=CC(=O)c2ccccc2C1=O | 813 nM |
| CN1CCN(C2=C(NS(=O)(=O)c3ccc(Br)s3)C(=O)c3ccccc3C2=O)CC1 | 2930 nM |
| COC1=C(Nc2ccccc2)C(=O)c2ccccc2C1=O | 492 nM |
| NC1=C(NS(=O)(=O)c2cccs2)C(=O)c2ccccc2C1=O | 2270 nM |
| O=C1C(Nc2ccc(F)cc2)=C(N2CCCCC2)C(=O)c2ccccc21 | 9240 nM |
| C=CCNC1=C(Cl)C(=O)c2ccccc2C1=O | 764 nM |
| COC1=C(NS(=O)(=O)c2ccc(Br)cc2)C(=O)c2ccccc2C1=O | 9120 nM |
| O=C(NC1=C(Cl)C(=O)c2ccccc2C1=O)c1ccccc1 | 227 nM |
| O=C1C(NS(=O)(=O)c2cccs2)=C(c2ccccc2)C(=O)c2ccccc21 | 10800 nM |
| NC1=C(NS(=O)(=O)c2ccccc2)C(=O)c2ccccc2C1=O | 4500 nM |
| Cc1nc2ccccc2n1/N=C/c1ccc([N+](=O)[O-])s1 | 2750 nM |
| Cc1ccc(NC2=CC(=O)c3ccccc3C2=O)cc1 | 745 nM |
| COc1ccc(NC2=C(N3CCCCC3)C(=O)c3ccccc3C2=O)cc1 | 11000 nM |
| CN1CCN(C2=C(Nc3ccc(F)cc3F)C(=O)c3ccccc3C2=O)CC1 | 3450 nM |
| O=C1C(Nc2ccc(Br)cc2)=C(N2CCCCC2)C(=O)c2ccccc21 | 14300 nM |
| NS(=O)(=O)c1ccc(NC2=CC(=O)c3ccccc3C2=O)cc1 | 82.4 nM |
| CCN1CCN(C2=C(NS(=O)(=O)c3ccc(Br)cc3)C(=O)c3ccccc3C2=O)CC1 | 6430 nM |
| CC(C)N1CCN(C2=C(Nc3ccc(F)cc3)C(=O)c3ccccc3C2=O)CC1 | 5310 nM |
| NC1=C(NC(=O)c2ccccc2)C(=O)c2ccccc2C1=O | 1540 nM |
| CCN1CCN(C2=C(Nc3ccc(F)cc3F)C(=O)c3ccccc3C2=O)CC1 | 2480 nM |

System: not listed separately
Assay: as above
Settings: SK-MEL-5 MLANA mRNA qPCR, delta delta Ct, overnight; at 35 µM (top of the series)

| SMILES | MLANA expression inhibition |
| --- | --- |
| NC1=C(NS(=O)(=O)c2ccc(Br)s2)C(=O)c2ccccc2C1=O | 31.6% (inactive) |
